Laboratory results reported in patent publication US20260176260A1, “DUAL RAF AND TUBULIN INHIBITORS AND METHODS OF USE THEREOF” (Deciphera Pharmaceuticals, LLC, priority 2023, published 2026).

tested on: tubulin polymerization in HCT-116 cells; assay: Cellular tubulin polymerization assay (pellet/supernatant a-tubulin, HCT-116 cells); assay type: cell-based; conditions: Table 3, HCT-116 cells; read-out: Tubulin Cellular
Procedure: HCT-116 cells (catalog #CCL-247) are obtained from the American Type Culture Collect (ATCC, Manassas, VA). Briefly, cells are grown in McCoy's 5A supplemented with 10% characterized fetal bovine serum (Invitrogen, Carlsbad, CA) and 1% Penicillin/Streptomycin/L-Glutamine at 37° C., 5% CO2, and 95% humidity. Cells are expanded until reaching 70-95% confluency at which point they are sub-cultured or harvested for assay use. 450000 cells are added per well in 1500 μL complete growth medium in a tissue culture treated, 12-well plate. Plates are incubated for 18 to 24 h at 37° C., 5% CO2, and 95% humidity. At the end of the incubation, 2000 μL of base culture media is added to each well, followed by a serial dilution of compound. Plates are incubated for an additional 1 h at 37° C., 5% CO2, and 95% humidity. Lysates are generated by the addition of 100 μL Lysis and Microtubule Stabilization Buffer 1 (LMS01, Cytoskeleton Inc, Denver, CO) supplemented with GTP (BST06, Cytoskeleton Inc), ATP (BSA04, Cytoskeleton Inc), and Protease Inhibitor Cocktail Stock (PIC02, Cytoskeleton Inc). Cells are scraped off wells using a rubber cell scraper and collected in a clean 96-well plate. Lysates are centrifuged at 1000×g, 37° C. for 10 min and supernatant fraction is placed into an additional 96-well plate. The remaining pellet fraction is reconstituted in 100 μL LMS01 buffer and sonicated for 10 min. Pellet and Supernatant fractions are probed for a-tubulin via western blot analysis on the Jess System or equivalent (Bio-techne, Minneapolis, MN). Data is analyzed using Prism software (Graphpad, San Diego, CA) to calculate IC50 values.

Row | IC50 | SMILES
1 | < 100 nM | CNC(=O)c1cc(-c2cc(-c3cc(NC(=O)c4cc(C(F)(F)F)cnn4)ccc3C)cc(NCCO)n2)ccn1 [Example 18]
2 | 100 to 500 nM | CNC(=O)c1cc(-c2cc(-c3cc(NC(=O)c4cc(C5CC5)cnn4)ccc3C)ccn2)ccn1 [Example 26]
3 | 100 to 500 nM | CNC(=O)c1cc(-c2cc(-c3cc(NC(=O)c4cc(C5CC5)cnn4)ccc3C)cc(NCCO)n2)ccn1 [Example 27]

Second part, the compound before the results:

Row | SMILES | IC50
4 | CNC(=O)c1cc(-c2cc(-c3cc(NC(=O)c4cc(C(F)(F)F)cnn4)ccc3C)ccn2)ccn1 [Example 9] | 100 to 500 nM
5 | CNC(=O)c1cc(-c2cc(-c3cc(NC(=O)c4cc(C(F)(F)F)cnn4)ccc3C)cc(C)n2)ccn1 [Example 2, N,6-dimethyl-4-(2-methyl-5-(5-(trifluoromethyl)pyridazine-3-carboxamido)phenyl)-[2,4′-bipyridine]-2′-carboxamide] | 100 to 500 nM
